28 molecules from patent publication US20240158392A1 (Janssen Biotech, Inc., priority 2021, published 2024) can be followed below.

What is called IC50 is the midpoint of a concentration-inhibition curve.

Where only a bound is given, the exact number is not on record here.

SIK2, sequence (Q9H0K1 whole entry, species assumed): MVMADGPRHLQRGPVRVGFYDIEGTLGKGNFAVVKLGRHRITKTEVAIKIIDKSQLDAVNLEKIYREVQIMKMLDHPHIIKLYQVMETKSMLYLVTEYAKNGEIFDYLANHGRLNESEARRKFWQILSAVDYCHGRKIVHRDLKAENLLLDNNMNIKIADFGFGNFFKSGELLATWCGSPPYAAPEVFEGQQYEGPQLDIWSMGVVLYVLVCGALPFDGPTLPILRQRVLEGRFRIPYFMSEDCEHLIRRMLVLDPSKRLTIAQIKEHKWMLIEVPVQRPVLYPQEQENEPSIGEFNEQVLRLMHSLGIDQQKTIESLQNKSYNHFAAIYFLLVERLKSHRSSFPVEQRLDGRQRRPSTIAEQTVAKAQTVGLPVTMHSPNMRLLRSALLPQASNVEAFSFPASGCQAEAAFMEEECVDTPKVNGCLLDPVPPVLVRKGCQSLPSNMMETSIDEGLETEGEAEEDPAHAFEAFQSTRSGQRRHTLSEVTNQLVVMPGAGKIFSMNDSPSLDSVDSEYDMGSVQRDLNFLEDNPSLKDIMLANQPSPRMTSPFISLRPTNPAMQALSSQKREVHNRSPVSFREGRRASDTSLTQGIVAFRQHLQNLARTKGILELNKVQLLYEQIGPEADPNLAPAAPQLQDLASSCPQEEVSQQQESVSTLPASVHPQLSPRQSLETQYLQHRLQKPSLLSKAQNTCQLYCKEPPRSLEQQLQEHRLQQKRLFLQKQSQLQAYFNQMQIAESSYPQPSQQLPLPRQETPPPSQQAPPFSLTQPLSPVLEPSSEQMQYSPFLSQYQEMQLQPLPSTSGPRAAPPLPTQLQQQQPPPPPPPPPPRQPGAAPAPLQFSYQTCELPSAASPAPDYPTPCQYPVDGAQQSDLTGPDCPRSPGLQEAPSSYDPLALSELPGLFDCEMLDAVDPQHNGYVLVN

One test addresses SIK2 (Homo sapiens, UniProt Q9H0K1). Briefly: SIK2 Enzymatic Assay High Version 2 (High ATP). Type of test: biochemical.
Conditions: not given
In short, it runs like this:
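At room temperature, enzyme (6 nM, 2× final) was preincubated with compound for 30 min, then 6 mM ATP and 400 μM HDAC5tide (both 2× final) were added for 2 h. ADP formed was measured by ADP-Glo Max (2 h reagent, 1 h detection) using luminescence.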
Take `Cc1cnc(Nc2cc3cc(-c4cc(C)ncc4O[C@H]4C[C@H]5COC[C@@H](C4)N5)ccn3n2)cn1` [Example 381, 5-[2-methyl-5-[[(1S,5R,7s)-3-oxa-9-azabicyclo[3.3.1]nonan-7-yl]oxy]-4-pyridyl]-N-(5-methylpyrazin-2-yl)pyrazolo[1,5-a]pyridin-2-amine]: the IC50 is less than 0.000847 µM. Same read-out and setting: in the case of `CCC(=O)c1ccc(O[C@H]2C[C@H]3COC[C@@H](C2)N3)c(-c2ccn3nc(NC(=O)C4CC4)cc3c2)c1` [Example 480, N-[5-[2-[[(1R,5S)-3-oxa-9-azabicyclo[3.3.1]nonan-7-yl]oxy]-5-propanoyl-phenyl]pyrazolo[1,5-a]pyridin-2-yl]cyclopropanecarboxamide] it was less than 0.000847 µM; in that of `Cc1cc(-c2ccn3nc(Nc4ccnnc4)cc3c2)c(O[C@H]2C[C@H]3COC[C@@H](C2)N3)cn1` [Example 368, 5-[2-methyl-5-[[(1S,5R,7s)-3-oxa-9-azabicyclo[3.3.1]nonan-7-yl]oxy]-4-pyridyl]-N-pyridazin-4-yl-pyrazolo[1,5-a]pyridin-2-amine], less than 0.000847 µM.

Turning to `Cc1cc(-c2ccn3nc(NC(=O)C4CC4)cc3c2)c(O[C@@H]2CN(C)[C@@H]2C)cn1` (relative stereo) [Example 455, *R, *R—N-[5-[5-(1,2-dimethylazetidin-3-yl)oxy-2-methyl-4-pyridyl]pyrazolo[1,5-a]pyridin-2-yl]cyclopropanecarboxamide], it took 0.0356 µM to reach half-maximal inhibition (IC50). The molecule `Cc1cc(-c2ccn3nc(NC(=O)[C@@H]4C[C@H]4C)cc3c2)c(O[C@@H]2[C@@H]3CO[C@H]2CN3)cn1` [Example 463, (1R,2R)-2-methyl-N-[5-[2-methyl-5-[[(1S,4S,7R)-2-oxa-5-azabicyclo[2.2.1]heptan-7-yl]oxy]-4-pyridyl]pyrazolo[1,5-a]pyridin-2-yl]cyclopropanecarboxamide] registered an IC50 of 0.0107 µM. The same measure, in the same setting: to `CCNC(=O)c1ccc(Nc2cc3cc(-c4cc(C)ncc4O[C@H]4C[C@H]5COC[C@@H](C4)N5)ccn3n2)nc1` [Example 384, N-ethyl-6-[[5-[2-methyl-5-[[(1S,5R,7s)-3-oxa-9-azabicyclo[3.3.1]nonan-7-yl]oxy]-4-pyridyl]pyrazolo[1,5-a]pyridin-2-yl]amino]pyridine-3-carboxamide] belongs 0.000889 µM. As for `Cc1cc(-c2ccn3nc(NC(=O)C4CC4)cc3c2)c(OC[C@H]2CCN2C)cn1` [Example 468, N-[5-[2-methyl-5-[[(2R)-1-methylazetidin-2-yl]methoxy]-4-pyridyl]pyrazolo[1,5-a]pyridin-2-yl]cyclopropanecarboxamide], the IC50 came to 0.00813 µM. Still for that read-out and setting: to `Cc1cc(-c2cn3cc(Nc4cc(C)nc(C)n4)nc3cn2)c(O[C@H]2C[C@H]3COC[C@@H](C2)N3)cn1` (single isomer, unassigned) [Example 348] belongs less than 0.000847 µM; to `Cc1cc(-c2ccn3nc(NC(=O)C4CC4)cc3c2)c(OC[C@@H]2CCN2)cn1` [Example 526, N-[5-[5-[[(2S)-azetidin-2-yl]methoxy]-2-methyl-4-pyridyl]pyrazolo[1,5-a]pyridin-2-yl]cyclopropanecarboxamide], 0.0198 µM.

`Cc1cc(-c2ccn3nc(NC(=O)C4CC4)cc3c2)c(O[C@H]2[C@@H]3CN(C)[C@H]2CO3)cn1` [Example 164, N-(5-(2-methyl-5-(((1S,4S,7R)-5-methyl-2-oxa-5-azabicyclo[2.2.1]heptan-7-yl)oxy)pyridin-4-yl)pyrazolo[1,5-a]pyridin-2-yl)cyclopropanecarboxamide] yielded an IC50 of 0.218 µM. Molecule `Cc1cc(-c2ccn3nc(NC(=O)C4CC4)cc3c2)c(O[C@H]2C[C@H]3COC[C@@H](C2)N3C)cn1` [Example 460, N-[5-[2-methyl-5-[[(1S,5R)-9-methyl-3-oxa-9-azabicyclo[3.3.1]nonan-7-yl]oxy]-4-pyridyl]pyrazolo[1,5-a]pyridin-2-yl]cyclopropanecarboxamide] came in with an IC50 of 0.0413 µM. For `Cc1cnc(Nc2cc3cc(-c4cc(C)ncc4O[C@@H]4[C@@H]5CO[C@H]4CN5)ccn3n2)cn1` [Example 528, 5-[2-methyl-5-[[(1S,4S,7R)-2-oxa-5-azabicyclo[2.2.1]heptan-7-yl]oxy]-4-pyridyl]-N-(5-methylpyrazin-2-yl)pyrazolo[1,5-a]pyridin-2-amine], it took 0.0642 µM to reach half-maximal inhibition (IC50).

Take `Cc1cc(-c2ccn3nc(Nc4cn(C)nc4F)cc3c2)c(O[C@H]2C[C@H]3COC[C@@H](C2)N3C)cn1` [Example 412, N-(3-fluoro-1-methyl-pyrazol-4-yl)-5-[2-methyl-5-[[(1S,5R,7s)-9-methyl-3-oxa-9-azabicyclo[3.3.1]nonan-7-yl]oxy]-4-pyridyl]pyrazolo[1,5-a]pyridin-2-amine]: half-maximal inhibition (IC50) required 0.000883 µM. The same measure, in the same setting: to `Cc1cc(-c2cn3cc(Nc4cc(C)nc(C)n4)nc3cn2)c(OC2C[C@H]3COC[C@@H](C2)N3C)cn1` (stereo partly drawn) [Example 349, N-(2,6-dimethylpyrimidin-4-yl)-6-[2-methyl-5-[[(1R,5S)-9-methyl-3-oxa-9-azabicyclo[3.3.1]nonan-7-yl]oxy]-4-pyridyl]imidazo[1,2-a]pyrazin-2-amine] belongs less than 0.000847 µM.

The test is the same for the next values; noted with them: enzyme 6 nM, 6 mM ATP and 400 μM HDAC5tide (each 2× final concentration); 30 minutes pre-incubation, 2 hours; ADP-Glo Max luminescence; read-out: SIK2 high ATP IC50 (μM) (Test Example 2).
`Cc1cc(-c2ccn3nc(Nc4cnccn4)cc3c2)c(OC[C@@H]2CNCCO2)cn1` [Example 431, 5-[2-methyl-5-[[(2S)-morpholin-2-yl]methoxy]-4-pyridyl]-N-pyrazin-2-yl-pyrazolo[1,5-a]pyridin-2-amine]: the IC50 was found to be 0.00194 µM. On to `CO[C@]1(COc2cnc(C)cc2-c2ccn3nc(NC(=O)C4CC4)cc3c2)CCNC1` (single isomer, unassigned) [Example 214, (*R)—N-[5-[5-[(3-methoxypyrrolidin-3-yl)methoxy]-2-methyl-4-pyridyl]pyrazolo[1,5-a]pyridin-2-yl]cyclopropanecarboxamide], for which the IC50 was determined as 0.0324 µM. Same read-out and setting: to `Cc1cc(-c2ccn3nc(NC(=O)C4CC4)cc3c2)c(OCC2CN(CCF)C2)cn1` [Example 457, N-[5-[5-[[1-(2-fluoroethyl)azetidin-3-yl]methoxy]-2-methyl-4-pyridyl]pyrazolo[1,5-a]pyridin-2-yl]cyclopropanecarboxamide] belongs 0.0298 µM; to `CCc1cc(-c2ccn3nc(Nc4cc(C)nc(C)n4)cc3c2)c(OCC(C)(C)C#N)cn1` [Example 328, 3-[[4-[2-[(2,6-dimethylpyrimidin-4-yl)amino]pyrazolo[1,5-a]pyridin-5-yl]-6-ethyl-3-pyridyl]oxy]-2,2-dimethyl-propanenitrile], 0.0381 µM; to `Cc1cc(-c2ccn3nc(NC(=O)C4CC4)cc3c2)c(O[C@H]2CC[C@@](O)(C(F)(F)F)CC2)cn1` [Example 191, N-(5-(5-(((1r,4r)-4-hydroxy-4-(trifluoromethyl)cyclohexyl)oxy)-2-methylpyridin-4-yl)pyrazolo[1,5-a]pyridin-2-yl)cyclopropanecarboxamide], 0.00251 µM.

Take `CCc1nc(C)cc(Nc2cc3cc(-c4cc(C)ncc4O[C@H]4CC[C@H](O)CC4)ccn3n2)n1` [Example 224, (1r,4r)-4-((4-(2-((2-ethyl-6-methylpyrimidin-4-yl)amino)pyrazolo[1,5-a]pyridin-5-yl)-6-methylpyridin-3-yl)oxy)cyclohexan-1-ol]: the IC50 was 0.00127 µM. The same measure, in the same setting: to `Cc1cc(-c2ccn3nc(Nc4cc(C(=O)NC5CC5)cc(C)n4)cc3c2)c(OCC(C)(C)O)cn1` [Example 636, N-cyclopropyl-2-[[5-[5-(2-hydroxy-2-methyl-propoxy)-2-methyl-4-pyridyl]pyrazolo[1,5-a]pyridin-2-yl]amino]-6-methyl-pyridine-4-carboxamide] belongs 0.0135 µM. For `Cc1cc(Nc2cc3cc(-c4cc(C#N)ccc4O[C@H]4CC[C@H](O)CC4)ccn3n2)nc(C)n1` [Example 483, 3-[2-[(2,6-dimethylpyrimidin-4-yl)amino]pyrazolo[1,5-a]pyridin-5-yl]-4-(4-hydroxycyclohexoxy)benzonitrile], the half-inhibitory concentration (IC50) came to 0.0443 µM.

With `Cc1cc(-c2ccn3nc(Nc4cccnn4)cc3c2)c(OC[C@@H]2CNCCO2)cn1` [Example 134, 5-[2-methyl-5-[[(2S)-morpholin-2-yl]methoxy]-4-pyridyl]-N-pyridazin-3-yl-pyrazolo[1,5-a]pyridin-2-amine], the half-maximal inhibitory concentration (IC50) was determined as 0.0128 µM.

`Cc1cc(Nc2cc3cc(-c4cc(OCCO)ncc4OCC(C)(C)C#N)ccn3n2)nc(C)n1` [Example 678, 3-[[4-[2-[(2,6-dimethylpyrimidin-4-yl)amino]pyrazolo[1,5-a]pyridin-5-yl]-6-(2-hydroxyethoxy)-3-pyridyl]oxy]-2,2-dimethyl-propanenitrile]: the concentration for half-maximal inhibition (IC50) is 0.0443 µM. Consider `Cc1cc(-c2ccn3nc(Nc4cc(C)nc(C)n4)cc3c2)c(O[C@H]2CCNC2)cn1` [Example 276, N-(2,6-dimethylpyrimidin-4-yl)-5-[2-methyl-5-[(3S)-pyrrolidin-3-yl]oxy-4-pyridyl]pyrazolo[1,5-a]pyridin-2-amine], for which the IC50 stood at 0.00921 µM.

`Cc1cc(-c2ccn3nc(NC(=O)C4CC4)cc3c2)c(OCC2(NC3CC3)CCC2)cn1` [Example 157, N-[5-[5-[[1-(cyclopropylamino)cyclobutyl]methoxy]-2-methyl-4-pyridyl]pyrazolo[1,5-a]pyridin-2-yl]cyclopropanecarboxamide]: the concentration for half-maximal inhibition (IC50) was determined as 0.0708 µM. Same read-out and setting: to `Cc1cc(-c2ccn3nc(Nc4cc(C)nc(C)n4)cc3c2)c(OC[C@H]2C[C@@H](C#N)C2)cn1` [Example 687, 3-[[4-[2-[(2,6-dimethylpyrimidin-4-yl)amino]pyrazolo[1,5-a]pyridin-5-yl]-6-methyl-3-pyridyl]oxymethyl]cyclobutanecarbonitrile] belongs 0.0759 µM; to `Cc1cc(-c2ccn3nc(Nc4cccnn4)cc3c2)c(O[C@H]2C[C@H](N)C2)cn1` [Example 520, 5-[5-(3-aminocyclobutoxy)-2-methyl-4-pyridyl]-N-pyridazin-3-yl-pyrazolo[1,5-a]pyridin-2-amine], 0.0445 µM.
